This note sets out measurements from patent publication US8871753B2, “Macrocyclic compounds and their use as kinase inhibitors” (Incyte Corporation, priority 2008, dated 2014).

Type in all cases: biochemical
Assay [1] deals with T1, human JAK2 (a.a. 828-1132) (Homo sapiens, UniProt O60674).
T1 construct: JAK2 (a.a. 828-1132); His tag (N); made in house; host or cells: insect cells (baculovirus)
Briefly: In vitro JAK kinase assay (HTRF, phosphorylation of a biotinylated peptide), JAK2. In outline: (§1)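 Phosphorylation of a biotinylated peptide by the JAK kinase domain, detected by HTRF with Eu-Py20 and SA-APC. ATP was 90 μM for JAK1, 30 μM for JAK2 and 3 μM for JAK3. Reactions ran 1 h at room temperature and were stopped with EDTA, followed by 40 min antibody binding.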
(In general: Time-resolved FRET reads energy transfer from a long-lived donor to a nearby acceptor.)

Assay [2] addresses T2, human JAK1 (a.a. 837-1142) (Homo sapiens, UniProt P23458).
T2 construct: human JAK1 (a.a. 837-1142); His tag (N); made in house; host or cells: insect cells (baculovirus)
Nature of the assay: In vitro JAK kinase assay (HTRF, phosphorylation of a biotinylated peptide), JAK1. The following applies: read-out: JAK1 IC50. In outline:
as §1

The target in assay [3] is T3, human JAK3 (a.a. 781-1124) (Homo sapiens, UniProt P52333).
T3 construct: JAK3 (a.a. 781-1124); His tag (N); made in house; host or cells: insect cells (baculovirus)
T3 sequence (P52333 781-1124): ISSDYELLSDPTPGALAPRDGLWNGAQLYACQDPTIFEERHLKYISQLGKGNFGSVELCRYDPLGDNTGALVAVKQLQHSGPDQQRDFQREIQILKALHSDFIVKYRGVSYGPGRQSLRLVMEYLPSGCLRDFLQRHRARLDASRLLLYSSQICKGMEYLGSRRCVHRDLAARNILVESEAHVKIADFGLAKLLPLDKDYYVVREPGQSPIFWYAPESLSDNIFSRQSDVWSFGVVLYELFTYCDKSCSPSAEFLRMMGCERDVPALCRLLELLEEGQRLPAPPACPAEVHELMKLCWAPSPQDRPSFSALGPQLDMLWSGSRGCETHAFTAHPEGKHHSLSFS
Nature of the assay: In vitro JAK kinase assay (HTRF, phosphorylation of a biotinylated peptide), JAK3. The procedure, abridged:
as §1

A further assay addresses TYK2 (Homo sapiens, UniProt P29597). Nature of the assay: TYK2 kinase inhibition (Table A1).

Structures are written as SMILES. Where a name gives a salt, the structure may show the parent alone. Read-outs that look alike come from different tables or passages of the source. Bounds are passed on as bounds.

T1 sequence (O60674 828-1132): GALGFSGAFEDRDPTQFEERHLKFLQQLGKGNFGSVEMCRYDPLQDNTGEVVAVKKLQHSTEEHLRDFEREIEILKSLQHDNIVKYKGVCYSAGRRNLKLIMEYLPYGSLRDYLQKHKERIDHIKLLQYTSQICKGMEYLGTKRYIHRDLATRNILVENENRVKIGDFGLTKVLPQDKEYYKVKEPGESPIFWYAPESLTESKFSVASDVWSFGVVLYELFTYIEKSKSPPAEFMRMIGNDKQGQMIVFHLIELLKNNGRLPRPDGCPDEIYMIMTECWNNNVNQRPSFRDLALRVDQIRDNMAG
Chain of TYK2 (P29597 whole entry): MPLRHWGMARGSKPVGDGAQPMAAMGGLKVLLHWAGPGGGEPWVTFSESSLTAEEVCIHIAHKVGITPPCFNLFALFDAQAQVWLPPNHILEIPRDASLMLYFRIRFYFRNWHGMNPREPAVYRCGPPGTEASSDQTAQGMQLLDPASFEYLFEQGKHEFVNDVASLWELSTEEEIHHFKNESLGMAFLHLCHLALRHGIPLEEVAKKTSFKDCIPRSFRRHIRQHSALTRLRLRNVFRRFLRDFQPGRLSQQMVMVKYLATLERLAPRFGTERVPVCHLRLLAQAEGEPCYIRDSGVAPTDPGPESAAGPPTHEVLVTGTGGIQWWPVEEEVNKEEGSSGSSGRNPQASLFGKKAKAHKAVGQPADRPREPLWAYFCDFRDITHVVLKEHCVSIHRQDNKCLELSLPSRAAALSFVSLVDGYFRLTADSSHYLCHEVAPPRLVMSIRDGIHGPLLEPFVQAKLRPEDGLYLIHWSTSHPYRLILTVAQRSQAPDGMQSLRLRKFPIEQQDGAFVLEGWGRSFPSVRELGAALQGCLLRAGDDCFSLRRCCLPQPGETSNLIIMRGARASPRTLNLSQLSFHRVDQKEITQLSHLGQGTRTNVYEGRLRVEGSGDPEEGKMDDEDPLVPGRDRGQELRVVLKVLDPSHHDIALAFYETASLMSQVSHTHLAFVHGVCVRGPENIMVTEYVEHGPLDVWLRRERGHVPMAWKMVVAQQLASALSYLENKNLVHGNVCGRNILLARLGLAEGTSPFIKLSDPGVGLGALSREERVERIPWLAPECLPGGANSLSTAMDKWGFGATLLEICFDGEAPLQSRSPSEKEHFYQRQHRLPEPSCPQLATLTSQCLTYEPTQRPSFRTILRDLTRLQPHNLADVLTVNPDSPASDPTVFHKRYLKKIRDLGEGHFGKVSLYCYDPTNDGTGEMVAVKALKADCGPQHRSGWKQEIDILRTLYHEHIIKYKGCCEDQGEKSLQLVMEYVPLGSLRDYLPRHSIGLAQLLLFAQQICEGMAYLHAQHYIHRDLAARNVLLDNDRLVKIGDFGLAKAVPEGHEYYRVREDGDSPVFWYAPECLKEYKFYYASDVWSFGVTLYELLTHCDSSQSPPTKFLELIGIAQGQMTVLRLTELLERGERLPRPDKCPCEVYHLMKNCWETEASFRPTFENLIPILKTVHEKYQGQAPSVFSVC
T2 sequence (P23458 849-1154): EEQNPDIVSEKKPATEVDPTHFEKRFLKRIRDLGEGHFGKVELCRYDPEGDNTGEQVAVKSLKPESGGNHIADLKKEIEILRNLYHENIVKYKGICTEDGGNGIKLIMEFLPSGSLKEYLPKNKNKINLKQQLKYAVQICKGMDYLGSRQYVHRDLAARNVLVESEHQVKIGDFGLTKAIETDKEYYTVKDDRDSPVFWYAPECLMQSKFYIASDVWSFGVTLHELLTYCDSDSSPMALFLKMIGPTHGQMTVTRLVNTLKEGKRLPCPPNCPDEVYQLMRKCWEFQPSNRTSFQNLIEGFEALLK

By IC50 is commonly meant the midpoint of a concentration-inhibition curve. For the molecule `O=C(C[C@@H]1CCN(C(=O)Nc2ccccc2F)C1)Nc1ccc2cc1CCc1cncc(c1)Nc1ncc(Cl)c(n1)N2` [Example D135, (3S)-3-(2-{[6-Chloro-2,4,8,18,22-pentaazatetracyclo[14.3.1.1(3,7).1(9,13)]docosa-1(20),3(22),4,6,9(21),10,12,16,18-nonaen-12-yl]amino}-2-oxoethyl)-N-(2-fluorophenyl)pyrrolidine-1-carboxamide bis(trifluoroacetate)], the IC50 in assay [1] (Table D1) was 314 nM; in assay [2] (Table D1) it was 60 nM; in assay [3] (Table D1), more than 1000 nM; against TYK2 (Table D1), more than 1000 nM.

Turning to `O=C(Nc1ccc(F)cc1)N1CCC(CCOc2ccc3cc2CCc2cncc(c2)Nc2ncc(Cl)c(n2)N3)CC1` [Example D168, 4-(2-{[6-Chloro-2,4,8,18,22-pentaazatetracyclo[14.3.1.1(3,7).1(9,13)]docosa-1(20),3(22),4,6,9(21),10,12,16,18-nonaen-12-yl]oxy}ethyl)-N-(4-fluorophenyl)piperidine-1-carboxamide bis(trifluoroacetate)], the IC50 in assay [1] (Table D1) was 255 nM; in assay [2] (Table D1), 34 nM; in assay [3] (Table D1), more than 400 nM; against TYK2 (Table D1), more than 400 nM.

Take `O=C(Nc1cccc(C(F)(F)F)c1)N1CCN(c2ccc3cc2CCc2cccc(c2)Nc2ncc(Cl)c(n2)N3)CC1` [Example D91, 4-[6-Chloro-2,4,8,22-tetraazatetracyclo[14.3.1.1(3,7).1(9,13)]docosa-1(20),3(22),4,6,9(21),10,12,16,18-nonaen-12-yl]-N-[3-(trifluoromethyl)phenyl]piperazine-1-carboxamide bis(trifluoroacetate)]: the IC50 in assay [1] (Table D1) is 32 nM; in assay [2] (Table D1), 146 nM; in assay [3] (Table D1) it was 133 nM; against TYK2 (Table D1), 156 nM.

For `CC(=O)N1CCC(CCNc2ccc3cc2CCc2cncc(c2)Nc2ncc(Cl)c(n2)N3)CC1` [Example D219, N-[2-(1-Acetylpiperidin-4-yl)ethyl]-6-chloro-2,4,8,18,22-pentaazatetracyclo[14.3.1.1(3,7).1(9,13)]docosa-1(20),3(22),4,6,9(21),10,12,16,18-nonaen-12-amine tris(trifluoroacetate)], the IC50 was 49 nM in assay [1] (Table D1), 14 nM in assay [2] (Table D1), more than 400 nM in assay [3] (Table D1) and 38 nM on TYK2 (Table D1).

On to `Cc1cnc2nc1Nc1ccc(NC(=O)CC3CCN(c4nncs4)CC3)c(c1)CCc1cccc(c1)N2` [Example C53, N-[6-Methyl-2,4,8,22-tetraazatetracyclo[14.3.1.1(3,7).1(9,13)]docosa-1(20),3(22),4,6,9(21),10,12,16,18-nonaen-12-yl]-2-[1-(1,3,4-thiadiazol-2-yl)piperidin-4-yl]acetamide trifluoroacetate], for which the IC50 in assay [1] was more than 200 nM; in assay [2], 39 nM; in assay [3], more than 200 nM; against TYK2, 199 nM.

Turning to `O=C(c1ccc(C(F)(F)F)cc1)N1CCN(c2ccc3cc2CCc2cccc(c2)Nc2ncc(Cl)c(n2)N3)CC1` [Example D96, 6-Chloro-12-{4-[4-(trifluoromethyl)benzoyl]piperazin-1-yl}-2,4,8,22-tetraazatetracyclo[14.3.1.1(3,7).1(9,13)]docosa-1(20),3(22),4,6,9(21),10,12,16,18-nonaene bis(trifluoroacetate)], the IC50 in assay [1] (Table D1) is 49 nM; in assay [2] (Table D1), 112 nM; in assay [3] (Table D1), 149 nM; on TYK2 (Table D1), 195 nM.

Consider `Cc1cc(C(=O)N2CCC(CC(=O)Nc3ccc4cc3CCc3cccc(c3)Nc3ncc(F)c(n3)N4)CC2)no1` [Example C52, N-[6-Fluoro-2,4,8,22-tetraazatetracyclo[14.3.1.1(3,7).1(9,13)]docosa-1(20),3(22),4,6,9(21),10,12,16,18-nonaen-12-yl]-2-{1-[(5-methylisoxazol-3-yl)carbonyl]piperidin-4-yl}acetamide trifluoroacetate], for which the IC50 (in assay [1]; in assay [2]; in assay [3]; at TYK2) was more than 200 nM each time.

For the molecule `O=C(Nc1cccc(N2CCOCC2)n1)N1CCC(CCOc2ccc3cc2CCc2cncc(c2)Nc2ncc(Cl)c(n2)N3)CC1` [Example D176, 4-(2-{[6-Chloro-2,4,8,18,22-pentaazatetracyclo[14.3.1.1(3,7).1(9,13)]docosa-1(20),3(22),4,6,9(21),10,12,16,18-nonaen-12-yl]oxy}ethyl)-N-(6-morpholin-4-ylpyridin-2-yl)piperidine-1-carboxamide tris(trifluoroacetate)], the IC50 in assay [1] (Table D1) is 208 nM; in assay [2] (Table D1) it was 124 nM; in assay [3] (Table D1) it was more than 400 nM; at TYK2 (Table D1), more than 400 nM.

On to `O=C(C[C@@H]1CCCN(C(=O)c2ccccc2)C1)Nc1ccc2cc1CCc1cncc(c1)Nc1ncc(Cl)c(n1)N2` [Example D206, 2-[(3S)-1-Benzoylpiperidin-3-yl]-N-[6-chloro-2,4,8,18,22-pentaazatetracyclo[14.3.1.1(3,7).1(9,13)]docosa-1(20),3(22),4,6,9(21),10,12,16,18-nonaen-12-yl]acetamide bis(trifluoroacetate)], for which the IC50 in assay [1] (Table D1) came out at 14 nM; in assay [2] (Table D1) it was 9.2 nM; in assay [3] (Table D1), 147 nM; at TYK2 (Table D1), 13 nM.

With `CNC(=O)N1CCN(C(=O)COc2ccc3cc2CCc2cncc(c2)Nc2ncc(Cl)c(n2)N3)CC1` [Example D265, 4-({[6-Chloro-2,4,8,18,22-pentaazatetracyclo[14.3.1.1(3,7).1(9,13)]docosa-1(20),3(22),4,6,9(21),10,12,16,18-nonaen-12-yl]oxy}acetyl)-N-methylpiperazine-1-carboxamide bis(trifluoroacetate)], the IC50 is 235 nM in assay [1] (Table D1), 34 nM in assay [2] (Table D1), more than 400 nM in assay [3] (Table D1) and more than 400 nM against TYK2 (Table D1).

As to `Cc1csc(NC(=O)N2CCC(CCOc3ccc4cc3CCc3cncc(c3)Nc3ncc(Cl)c(n3)N4)CC2)c1` [Example D172, 4-(2-{[6-Chloro-2,4,8,18,22-pentaazatetracyclo[14.3.1.1(3,7).1(9,13)]docosa-1(20),3(22),4,6,9(21),10,12,16,18-nonaen-12-yl]oxy}ethyl)-N-(4-methyl-2-thienyl)piperidine-1-carboxamide bis(trifluoroacetate)], the IC50 in assay [1] (Table D1) is more than 400 nM; in assay [2] (Table D1), 130 nM; in assay [3] (Table D1) it was more than 400 nM; at TYK2 (Table D1) it was more than 400 nM.

With `O=c1[nH]c2cc3cc(c2o1)CCc1cccc(c1)Nc1ncc(Cl)c(n1)N3` [Example D184, 4-Chloro-18-oxa-2,6,8,20,25-pentaazapentacyclo[14.6.1.1(3,7).1(9,13).0(17,21)]pentacosa-1(23),3(25),4,6,9(24),10,12,16,21-nonaen-19-one], the 50% inhibitory concentration (IC50) was found to be 2.8 nM in assay [1] (Table D1), 0.9 nM in assay [2] (Table D1), 21 nM in assay [3] (Table D1) and 1.8 nM against TYK2 (Table D1).

On to `Cc1cc(C(=O)N2CCC(CC(=O)Nc3ccc4cc3CCc3cncc(c3)Nc3ncc(C)c(n3)N4)CC2)no1` [Example C51, 2-{1-[(5-Methylisoxazol-3-yl)carbonyl]piperidin-4-yl}-N-[6-methyl-2,4,8,18,22-pentaazatetracyclo[14.3.1.1(3,7).1(9,13)]docosa-1(20),3(22),4,6,9(21),10,12,16,18-nonaen-12-yl]acetamide bis(trifluoroacetate)], for which the IC50 was 371 nM in assay [1], 13 nM in assay [2], more than 400 nM in assay [3] and 100 nM against TYK2.

Regarding `N#Cc1ccccc1S(=O)(=O)N1CCC(CCNc2ccc3cc2CCc2cncc(c2)Nc2ncc(Cl)c(n2)N3)CC1` [Example D222, 2-{[4-(2-{[6-Chloro-2,4,8,18,22-pentaazatetracyclo[14.3.1.1(3,7).1(9,13)]docosa-1(20),3(22),4,6,9(21),10,12,16,18-nonaen-12-yl]amino}ethyl)piperidin-1-yl]sulfonyl}benzonitrile tris(trifluoroacetate)], the IC50 in assay [1] (Table D1) is 111 nM; in assay [2] (Table D1), 21 nM; in assay [3] (Table D1), more than 400 nM; against TYK2 (Table D1) it was 90 nM.

On to `O=C(Nc1ccccc1)N1CCN(c2ccc3cc2CCc2cccc(c2)Nc2ncc(Cl)c(n2)N3)CC1` [Example D92, 4-[6-Chloro-2,4,8,22-tetraazatetracyclo[14.3.1.1(3,7).1(9,13)]docosa-1(20),3(22),4,6,9(21),10,12,16,18-nonaen-12-yl]-N-phenylpiperazine-1-carboxamide bis(trifluoroacetate)], for which the IC50 in assay [1] (Table D1) was 4.9 nM; in assay [2] (Table D1) it was 16 nM; in assay [3] (Table D1), 36 nM; against TYK2 (Table D1), 25 nM.

Turning to `O=C(Nc1ccc2cc1CCc1cccc(c1)Nc1ncc(Cl)c(n1)N2)C1CCN(C(=O)Nc2ccc(Cl)nc2)CC1` [Example A40, N(1)-(6-Chloropyridin-3-yl)-N(4)-[6-chloro-2,4,8,22-tetraazatetracyclo[14.3.1.1(3,7).1(9,13)]docosa-1(20),3(22),4,6,9(21),10,12,16,18-nonaen-12-yl]piperidine-1,4-dicarboxamide bis(trifluoroacetate)], the IC50 in assay [1] (method AA1 (30 μM ATP) or AA2 (1000 μM ATP), not stated per value) came out at 15 nM; in assay [2] (method AA1 (90 μM ATP) or AA2 (1000 μM ATP), not stated per value), 16 nM; in assay [3] (method AA1 (3 μM ATP) or AA2 (1000 μM ATP), not stated per value) it was 30 nM; against TYK2 it was 18 nM.
